How the values were obtained:
[1] = target: T1, Purified recombinant ADAMTS-7 (rat prodomain/human catalytic domain, SEQ ID No. 01 or 02) (Homo sapiens, UniProt Q9UKP4); test: Assay for ADAMTS-7 enzymatic activity (FRET substrate cleavage); type: biochemical; details: FRET substrate SEQ ID No. 11, 120 min at 32° C.; read-out: ADAMTS7-IC50
T1 construct: rat ADAMTS-7 signal peptide + prodomain (rat 1-217, Q1EHB3) (N); 2xStrep tag (C); 6xHis tag (C); made in house; host or cells: Expi293 cells
T1 sequence (Q9UKP4 237-537): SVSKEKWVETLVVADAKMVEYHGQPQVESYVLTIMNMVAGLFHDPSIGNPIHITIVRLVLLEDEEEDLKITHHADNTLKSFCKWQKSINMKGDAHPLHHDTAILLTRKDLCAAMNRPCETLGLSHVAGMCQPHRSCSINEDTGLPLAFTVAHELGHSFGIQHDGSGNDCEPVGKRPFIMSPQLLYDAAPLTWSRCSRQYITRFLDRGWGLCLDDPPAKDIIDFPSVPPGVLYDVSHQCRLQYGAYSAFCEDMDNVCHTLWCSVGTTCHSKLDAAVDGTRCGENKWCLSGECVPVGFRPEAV
Procedure: Purified recombinant ADAMTS-7 (as of SEQ ID No. 01 or SEQ ID No. 02) was diluted in reaction buffer (20 mM HEPES pH 8.0, 150 mM NaCl, 5 mM CaCl2, 0.004% Brij, 10 μM ZnCl2) fora concentration of approximately 20 nM. 25 μl of the solution were transferred into each well of a 384-well white microtiter plate (Greiner Bio-One 781075) and 1 μl test compound solution (modulator/inhibitor dissolved in DMSO, at the corresponding concentration) or pure DMSO as a control were added per well. […] Amino acids […] are derived from Thrombospondin-1 sequence (275-289). An additional carboxyl glutamic acid was added after the QXL520 quencher to increase substrate solubility. The microtiter plate was incubated for 120 min at the temperature of 32° C. The increase of fluorescence intensity was measured in appropriate fluorescence plate reader (e.g. TECAN Ultra) using excitation wavelength of 485 nm and emission wavelength of 520 nm. IC50 values were calculated from percentage of inhibition of ADAMTS-7 activity as a function of test compound concentration.

ADAMTS4 = target: T2, ADAMTS4 (Homo sapiens, UniProt O75173); test: Selectivity assay for ADAMTS-7 modulators (FRET), ADAMTS4; type: biochemical; details: 50 nM enzyme (R&D 4307-AD), 1 μM Dabcyl/Edans FRET substrate, 120 min at 32° C.
T2 construct: purchased R&D 4307-AD
T2 sequence (O75173 213-685 limits assumed): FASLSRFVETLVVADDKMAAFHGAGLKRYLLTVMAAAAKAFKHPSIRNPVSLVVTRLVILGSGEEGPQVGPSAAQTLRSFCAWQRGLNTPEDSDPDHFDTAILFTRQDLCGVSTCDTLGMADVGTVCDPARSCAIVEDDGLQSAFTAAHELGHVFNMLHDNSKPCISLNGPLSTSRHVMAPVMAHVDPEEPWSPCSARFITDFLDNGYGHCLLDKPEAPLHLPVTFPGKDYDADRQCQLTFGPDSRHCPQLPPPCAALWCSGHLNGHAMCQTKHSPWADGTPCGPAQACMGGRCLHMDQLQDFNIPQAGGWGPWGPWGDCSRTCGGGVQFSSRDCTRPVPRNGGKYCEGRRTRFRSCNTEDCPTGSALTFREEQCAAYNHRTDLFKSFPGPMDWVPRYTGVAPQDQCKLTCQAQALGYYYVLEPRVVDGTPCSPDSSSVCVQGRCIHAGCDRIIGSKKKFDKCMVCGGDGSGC
Procedure: The respective enzyme (see table 2 below) was diluted in reaction buffer (50 mM Tris, 2.5 μM ZnCl2, 0.05% BSA, 0.001% Brij, pH 7.5 for ADAM17; 50 mM Tris 7.5, 150 mM NaCl, 10 mM CaCl2, 0.05% Brij for all other enzymes) to the respective concentration and 25 μl were transferred into each well of a 384-well white microtiter plate (Greiner Bio One 781075). 1 μl test compound solution (dissolved in DMSO, at the corresponding concentration) or pure DMSO as a control was added per well. The enzymatic reaction was initiated by addition of 25 μl of the respective concentration of the respective FRET substrate (see table 2 below) in reaction buffer. The microtiter plate was incubated for 120 min at the temperature of 32° C. The increase of fluorescence intensity was measured in appropriate fluorescence plate reader (e.g. TECAN Ultra) using the respective wavelengths for excitation and emission. IC50 values were calculated from percentage of inhibition of enzyme activity as a function of test compound concentration.

IC50 [1] [nM] | IC50 (ADAMTS4) [nM] | SMILES
8 | 680 | Cc1scnc1C1(CNC(=O)c2cnn(-c3ccc(F)cc3)n2)NC(=O)NC1=O (racemic) [Example 100, rac-2-(4-fluorophenyl)-N-{[4-(5-methyl-1,3-thiazol-4-yl)-2,5-dioxoimidazolidin-4-yl]methyl}-2H-1,2,3-triazole-4-carboxamide]
12 | 600 | O=C1NC(=O)C(CNC(=O)c2cnn(-c3cccc(F)c3)n2)(c2nccs2)N1 (racemic) [Example 108, rac-N-{[2,5-dioxo-4-(1,3-thiazol-2-yl)imidazolidin-4-yl]methyl}-2-(3-fluorophenyl)-2H-1,2,3-triazole-4-carboxamide]
19 | 1100 | O=C1NC(=O)C(CNC(=O)c2cnn(-c3ccc(Cl)c(F)c3)n2)(c2nccs2)N1 (racemic) [Example 109, rac-2-(4-chloro-3-fluorophenyl)-N-{[2,5-dioxo-4-(1,3-thiazol-2-yl)imidazolidin-4-yl]methyl}-2H-1,2,3-triazole-4-carboxamide]
35 | 1200 | O=C1NC(=O)C(CNC(=O)c2cnn(-c3ccc(F)c(Cl)c3)n2)(c2nccs2)N1 (racemic) [Example 111, rac-2-(3-chloro-4-fluorophenyl)-N-{[2,5-dioxo-4-(1,3-thiazol-2-yl)imidazolidin-4-yl]methyl}-2H-1,2,3-triazole-4-carboxamide]
39 | 2400 | O=C1NC(=O)C(CNC(=O)c2cnn(-c3ccc(F)cc3)n2)(c2nccs2)N1 (racemic) [Example 113, rac-N-{[2,5-dioxo-4-(1,3-thiazol-2-yl)imidazolidin-4-yl]methyl}-2-(4-fluorophenyl)-2H-1,2,3-triazole-4-carboxamide]
87 | 6600 | O=C1NC(=O)C(CNC(=O)c2cnn(-c3ccc(F)cc3F)n2)(c2nccs2)N1 (racemic) [Example 115, rac-2-(2,4-difluorophenyl)-N-{[2,5-dioxo-4-(1,3-thiazol-2-yl)imidazolidin-4-yl]methyl}-2H-1,2,3-triazole-4-carboxamide]
46 | 4500 | CC(C)C1(CNC(=O)c2cnn(-c3cccc(F)c3)n2)NC(=O)NC1=O (racemic) [Example 118, rac-2-(3-fluorophenyl)-N-[(4-isopropyl-2,5-dioxoimidazolidin-4-yl)methyl]-2H-1,2,3-triazole-4-carboxamide]
170 | 6000 | CC(C)C1(CNC(=O)c2cnn(-c3cccc(C#N)c3)n2)NC(=O)NC1=O (racemic) [Example 120, rac-2-(3-cyanophenyl)-N-[(4-isopropyl-2,5-dioxoimidazolidin-4-yl)methyl]-2H-1,2,3-triazole-4-carboxamide]
11 | 2500 | CC(C)C1(CNC(=O)c2cnn(-c3ccc(F)c(F)c3)n2)NC(=O)NC1=O (racemic) [Example 122, rac-2-(3,4-difluorophenyl)-N-[(4-isopropyl-2,5-dioxoimidazolidin-4-yl)methyl]-2H-1,2,3-triazole-4-carboxamide]
13 | 2800 | CC(C)C1(CNC(=O)c2cnn(-c3ccc(Cl)c(F)c3)n2)NC(=O)NC1=O (racemic) [Example 124, rac-2-(4-chloro-3-fluorophenyl)-N-[(4-isopropyl-2,5-dioxoimidazolidin-4-yl)methyl]-2H-1,2,3-triazole-4-carboxamide]
10 | 2400 | Cn1nccc1C1(CNC(=O)c2cnn(-c3ccc(F)cc3)n2)NC(=O)NC1=O (racemic) [Example 127, rac-2-(4-fluorophenyl)-N-{[4-(1-methyl-1H-pyrazol-5-yl)-2,5-dioxoimidazolidin-4-yl]methyl}-2H-1,2,3-triazole-4-carboxamide]
29 | 2400 | O=C1NC(=O)C(CNC(=O)c2cnn(-c3ccc(F)cc3)n2)(c2ccnn2C(F)F)N1 (racemic) [Example 128, rac-N-({4-[1-(difluoromethyl)-1H-pyrazol-5-yl]-2,5-dioxoimidazolidin-4-yl}methyl)-2-(4-fluorophenyl)-2H-1,2,3-triazole-4-carboxamide]
14 | 2800 | CCn1nccc1C1(CNC(=O)c2cnn(-c3ccc(F)cc3)n2)NC(=O)NC1=O (racemic) [Example 130, rac-N-{[4-(1-ethyl-1H-pyrazol-5-yl)-2,5-dioxoimidazolidin-4-yl]methyl}-2-(4-fluorophenyl)-2H-1,2,3-triazole-4-carboxamide]
37 | 2500 | Cc1ncsc1C1(CNC(=O)c2cnn(-c3ccc(F)cc3)n2)NC(=O)NC1=O (racemic) [Example 131, rac-2-(4-fluorophenyl)-N-{[4-(4-methyl-1,3-thiazol-5-yl)-2,5-dioxoimidazolidin-4-yl]methyl}-2H-1,2,3-triazole-4-carboxamide]
50 | 3200 | O=C1NC(=O)C(CNC(=O)c2cnn(-c3ccc(F)cc3)n2)(c2ccnn2CC(F)(F)F)N1 (racemic) [Example 133, rac-N-({2,5-dioxo-4-[1-(2,2,2-trifluoroethyl)-1H-pyrazol-5-yl]imidazolidin-4-yl}methyl)-2-(4-fluorophenyl)-2H-1,2,3-triazole-4-carboxamide]
48 | 6600 | O=C1NC(=O)C(CNC(=O)c2cnn(-c3ccc(F)cc3)n2)(c2ncsc2C(F)(F)F)N1 (racemic) [Example 135, rac-N-({2,5-dioxo-4-[5-(trifluoromethyl)-1,3-thiazol-4-yl]imidazolidin-4-yl}methyl)-2-(4-fluorophenyl)-2H-1,2,3-triazole-4-carboxamide]
69 | > 50000 | O=C1NC(=O)C(CNC(=O)c2cnn(-c3ccc(F)cc3)n2)(c2ccccc2)N1 (racemic) [Example 139, rac-N-[(2,5-dioxo-4-phenylimidazolidin-4-yl)methyl]-2-(4-fluorophenyl)-2H-1,2,3-triazole-4-carboxamide]
4 | 360 | Cn1ccnc1C1(CNC(=O)c2cnn(-c3ccccc3)n2)NC(=O)NC1=O (racemic) [Example 140, rac-N-{[4-(1-methyl-1H-imidazol-2-yl)-2,5-dioxoimidazolidin-4-yl]methyl}-2-phenyl-2H-1,2,3-triazole-4-carboxamide]
4 | 320 | Cn1ccnc1C1(CNC(=O)c2cnn(-c3ccc(F)cc3)n2)NC(=O)NC1=O (racemic) [Example 141, rac-2-(4-fluorophenyl)-N-{[4-(1-methyl-1H-imidazol-2-yl)-2,5-dioxoimidazolidin-4-yl]methyl}-2H-1,2,3-triazole-4-carboxamide]
5 | 200 | Cn1ccnc1C1(CNC(=O)c2cnn(-c3cc(F)c(F)c(F)c3)n2)NC(=O)NC1=O (racemic) [Example 143, rac-N-{[4-(1-methyl-1H-imidazol-2-yl)-2,5-dioxoimidazolidin-4-yl]methyl}-2-(3,4,5-trifluorophenyl)-2H-1,2,3-triazole-4-carboxamide]
